System: spontaneous contractions of the bladder
Assay: Cystometry on anaesthetized naive rats (suppression of rhythmic spontaneous bladder contractions)
Format: in vivo, rat
Details: anaesthetized ventilated naive female rats; i.v., cumulative administration; mean of 3 experiments
Experimental: The cystometric investigation of naive female rats was carried out by the method of Kimura et al. (Kimura et al., 1996, Int. J. Urol. 3:218-227). The abdomen of anaesthetized ventilated rats is opened up and the ureter is tied off. The urine is drained from the kidneys. A catheter is inserted into the bladder and fixed. […] After stable starting values are reached, the test substance is administered i.v. in a cumulative manner. An influence on bladder function manifests itself via suppression of spontaneous contractions. The absence of contractions over a period of 10 min is the parameter for the suppression.
A suppression of spontaneous contractions in rats was measurable with all the substances tested.

SMILES | Lowest dose (mean of the lowest dose at which for the first time contractions are absent over a period of 10 min)
COc1cccc(C2(O)CCCCC2CN(C)C)c1 (racemic) [Compound 23, rac-Tramadol, reference compound] | 5.3 (n = 3) mg/kg
CN(C)C[C@H]1CCCC[C@]1(F)c1cccc(O)c1.Cl [Compound 18, (+)-(1R,2R)-3-(2-Dimethylaminomethyl-1-fluoro-cyclohexyl)-phenol, hydrochloride] | 0.2 (n = 3) mg/kg
CN(C)C[C@H]1CCCC[C@@H]1c1cccc(O)c1.Cl [Compound 19, (+)-(1S,2S)-3-(2-Dimethylaminomethyl-cyclohexyl)-phenol, hydrochloride] | 0.1 (n = 3) mg/kg
CN(C)C[C@@H]1CCCC[C@H]1c1cccc(O)c1.Cl [Compound 20, (−)-(1R,2R)-3-(2-Dimethylaminomethyl-cyclohexyl)-phenol, hydrochloride] | 0.5 (n = 3) mg/kg
